From patent US20250154105A1, “POLYCYCLIC COMPOUND AND USE THEREOF” (TYK MEDICINES, INC., priority 2021, published 2025)

How the values were obtained:
[1] = system: YAP-TEAD; experiment: YAP-TEAD inhibitor activity by Nano luciferase method (8xGTiiC-nLuc reporter in 293T cells); assay type: cell-based; conditions: Homo sapiens, HEK-293T, 48 hours incubation, read-out: Nano-luciferase detection (IC50)
Summary of the method: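 293T cells transiently transfected with pGL3B-8xGTiiC-nLuc-CMV-fLuc, seeded 2000 cells/well, then treated 48 h at 37 °C with compounds in 1:3.16 dilution series (top 10,000 nM). Nano luciferase signal read after cell lysis; IC50 from percent of 0 nM control.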

[2] = system: human pleural mesothelioma cells NCI-H226; experiment: Cell anti-proliferation experiment (CCK8), NCI-H226; assay type: cell-based
Summary of the method: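 Viability was measured by CCK-8 (3 h, A450) after 3-day treatment with 0.15–333.33 nM compound in 0.1% DMSO medium. Curve-fitted IC50 was based on viability normalised to no-drug and cell-free controls.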

| Compound | IC50 [1] [µM] | IC50 [2] [µM] |
| --- | --- | --- |
| C[C@H](NC(=O)c1ccc2c(c1)c1c(c(=O)n2-c2ccc(C(F)(F)F)cc2)CCC1)c1ccccn1 [Example T-249] | ≤ 1 | ≤ 1 |
| C[C@H](NC(=O)c1ccc2c(c1)c1c(c(=O)n2-c2ccc(C(F)(F)F)cc2)CN(Cc2ccccc2)C1)c1ccccn1 [Example T-251] | 1 to 5 | 1 to 5 |
| C[C@H](NC(=O)c1ccc2c(c1)c1ncccc1c(=O)n2-c1ccc(C(F)(F)F)cc1)c1ccccn1 [Example T-252] | ≤ 1 | ≤ 1 |
| C[C@H](NC(=O)c1ccc2c(c1)c1cccnc1c(=O)n2-c1ccc(C(F)(F)F)cc1)c1ccccn1 [Example T-254] | ≤ 1 | ≤ 1 |
| Cc1ccc2c(=O)n(-c3ccc(C(F)(F)F)cc3)c3ccc(C(=O)N[C@@H](C)c4ccccn4)cc3c2c1 [Example T-255] | ≤ 1 | ≤ 1 |
| Cc1ccc2c(c1)c(=O)n(-c1ccc(C(F)(F)F)cc1)c1ccc(C(=O)N[C@@H](C)c3ccccn3)cc21 [Example T-256] | ≤ 1 | ≤ 1 |
| Cc1cccc2c1c(=O)n(-c1ccc(C(F)(F)F)cc1)c1ccc(C(=O)N[C@@H](C)c3ccccn3)cc21 [Example T-257] | ≤ 1 | ≤ 1 |
| C[C@H](NC(=O)c1ccc2c(c1)c1c(F)cccc1c(=O)n2-c1ccc(C(F)(F)F)cc1)c1ccccn1 [Example T-258] | ≤ 1 | ≤ 1 |
| C[C@H](NC(=O)c1ccc2c(c1)c1cc(F)ccc1c(=O)n2-c1ccc(C(F)(F)F)cc1)c1ccccn1 [Example T-259] | ≤ 1 | ≤ 1 |
| C[C@H](NC(=O)c1ccc2c(c1)c1ccc(F)cc1c(=O)n2-c1ccc(C(F)(F)F)cc1)c1ccccn1 [Example T-260] | 1 to 5 | ≤ 1 |
| C[C@H](NC(=O)c1ccc2c(c1)c1cccc(F)c1c(=O)n2-c1ccc(C(F)(F)F)cc1)c1ccccn1 [Example T-261] | 1 to 5 | ≤ 1 |
| C[C@H](NC(=O)c1ccc2c(c1)c1c(c(=O)n2-c2ccc(C(F)(F)F)nc2)CCC1)c1ccccn1 [Example T-262] | ≤ 1 | ≤ 1 |
| C[C@H](NC(=O)c1ccc2c(c1)c1c(c(=O)n2-c2ccc(C(F)(F)F)nc2)CCCC1)c1ccccn1 [Example T-263] | ≤ 1 | ≤ 1 |
| C[C@H](NC(=O)c1ccc2c(c1)c1cscc1c(=O)n2-c1ccc(C(F)(F)F)nc1)c1ccccn1 [Example T-264] | ≤ 1 | ≤ 1 |
| CNS(=O)(=O)c1ccc2c(c1)c1cscc1c(=O)n2-c1ccc(C(F)(F)F)cc1 [Example T-265] | ≤ 1 | ≤ 1 |
| C[C@H](NC(=O)c1ccc2c(c1)c1c(c(=O)n2C2CCC(F)(F)CC2)CCC1)c1ccccn1 [Example T-266] | ≤ 1 | ≤ 1 |
| C[C@H](NC(=O)c1ccc2c(c1)c1c(c(=O)n2C2CCC(F)(F)CC2)CCCC1)c1ccccn1 [Example T-267] | ≤ 1 | ≤ 1 |
| C[C@H](NC(=O)c1ccc2c(c1)c1ccccc1c(=O)n2C1CCC(F)(F)CC1)c1ccccn1 [Example T-268] | ≤ 1 | ≤ 1 |
| C[C@H](NC(=O)c1ccc2c(c1)-c1cscc1CN2C1CCC(C(F)(F)F)CC1)c1ccccn1 (stereo partly drawn) [Example T-269] | ≤ 1 | ≤ 1 |
| C[C@H](NC(=O)c1ccc2c(c1)c1nn(C)cc1c(=O)n2Cc1ccc(C(F)(F)F)cc1)c1ccccn1 [Example T-270] | ≤ 1 | ≤ 1 |
| C[C@H](NC(=O)c1ccc2c(c1)c1nn(C)cc1c(=O)n2Cc1ccccc1)c1ccccn1 [Example T-271] | ≤ 1 | ≤ 1 |

| Compound | IC50 [1] [µM] | IC50 [2] [µM] |
| --- | --- | --- |
| C[C@H](NC(=O)c1ccc2c(c1)c1cscc1c(=O)n2-c1ccc(S(F)(F)(F)(F)F)cc1)c1ccccn1 [Example T-274] | ≤ 1 | ≤ 1 |
| Cc1c(Br)c(=O)n(-c2ccc(C(F)(F)F)cc2)c2ccc(C(=O)N[C@@H](C)c3ccccn3)cc12 [Example T-278] | ≤ 1 | ≤ 1 |
| Cc1c(-c2ccccc2)c(=O)n(-c2ccc(C(F)(F)F)cc2)c2ccc(C(=O)N[C@@H](C)c3ccccn3)cc12 [Example T-279] | 1 to 5 | ≤ 1 |
| C=CC(=O)Nc1ccc2c(c1)c(C)cc(=O)n2-c1ccc(C(F)(F)F)cc1 [Example T-280] | ≤ 1 | ≤ 1 |
| CC1c2ccccc2-c2cc(C(=O)N[C@@H](C)c3ccccn3)ccc2N1c1ccc(C(F)(F)F)cc1 (stereo partly drawn) [Example T-281] | ≤ 1 | ≤ 1 |
| C[C@H](NC(=O)c1ccc2c(c1)C1CCCC1CN2c1ccc(C(F)(F)F)cc1)c1ccccc1 (stereo partly drawn) [Example T-283] | 1 to 5 | 1 to 5 |
| C=CC(=O)N[C@@H](C)c1c(C)c2ccccc2n(-c2ccc(C(F)(F)F)cc2)c1=O [Example T-284] | 1 to 5 | 1 to 5 |
| C=CC(=O)NC(C)c1c(C)c2ccccc2n(-c2ccc(C(F)(F)F)cc2)c1=O (stereo not drawn) [Example T-285] | 1 to 5 | 1 to 5 |
| C[C@H](NC(=O)c1ccc2c(c1)c1cocc1c(=O)n2-c1ccc(C(F)(F)F)cc1)c1ccccn1 [Example T-286] | ≤ 1 | ≤ 1 |
| C[C@H](NC(=O)c1ccc2c(c1)c1c(c(=O)n2-c2ccc(C(F)(F)F)cc2)CN(C)C1)c1ccccn1 [Example T-287] | ≤ 1 | ≤ 1 |
| Cc1occ2c(=O)n(-c3ccc(C(F)(F)F)cc3)c3ccc(C(=O)N[C@@H](C)c4ccccn4)cc3c12 [Example T-288] | ≤ 1 | ≤ 1 |
| Cc1oc(C)c2c1c(=O)n(-c1ccc(C(F)(F)F)cc1)c1ccc(C(=O)N[C@@H](C)c3ccccn3)cc21 [Example T-289] | ≤ 1 | ≤ 1 |
| C[C@H](NC(=O)c1ccc2c(c1)c1c(c(=O)n2-c2ccc(C(F)(F)F)cc2)CCC1F)c1ccccn1 (stereo partly drawn) [Example T-290] | ≤ 1 | ≤ 1 |
| C[C@H](NC(=O)c1ccc2c(c1)c1c(c(=O)n2-c2ccc(C(F)(F)F)cc2)CC(F)C1)c1ccccn1 (stereo partly drawn) [Example T-291] | ≤ 1 | ≤ 1 |
| C[C@H](NC(=O)c1ccc2c(c1)c1c(c(=O)n2-c2ccc(C(F)(F)F)cc2)C(F)CC1)c1ccccn1 (stereo partly drawn) [Example T-292] | ≤ 1 | ≤ 1 |
| C[C@H](NC(=O)c1ccc2c(c1)c1c(c(=O)n2-c2ccc(C(F)(F)F)cc2)CCC1(F)F)c1ccccn1 [Example T-293] | ≤ 1 | ≤ 1 |
| C[C@H](NC(=O)c1ccc2c(c1)c1c(c(=O)n2-c2ccc(C(F)(F)F)cc2)CC(F)(F)C1)c1ccccn1 [Example T-294] | ≤ 1 | ≤ 1 |
| C[C@H](NC(=O)c1ccc2c(c1)c1c(c(=O)n2-c2ccc(C(F)(F)F)cc2)C(F)(F)CC1)c1ccccn1 [Example T-295] | ≤ 1 | ≤ 1 |
| Cc1scc2c(=O)n(-c3ccc(C(F)(F)F)cc3)c3ccc(C(=O)N[C@@H](C)c4ccccn4)cc3c12 [Example T-296] | ≤ 1 | ≤ 1 |
| Cc1scc2c1c(=O)n(-c1ccc(C(F)(F)F)cc1)c1ccc(C(=O)N[C@@H](C)c3ccccn3)cc21 [Example T-297] | ≤ 1 | ≤ 1 |
| C[C@H](NC(=O)c1ccc2c(c1)c1c(F)scc1c(=O)n2-c1ccc(C(F)(F)F)cc1)c1ccccn1 [Example T-298] | ≤ 1 | ≤ 1 |
